Source: patent EP4653443A1, “STEREOISOMER AND DEUTERATED DERIVATIVE OF PYRAZOLOQUINAZOLINE COMPOUND AND USE” (Phil Rivers Technology Co., Ltd, priority 2023, dated 2024)
Values after ≈ are worked out from the molar mass of the structure shown. Like-named read-outs stand apart in the source and are kept apart here.

Legend:
[1] = system: pancreatic cancer cell line (PSN1); assay: Proliferation inhibitory activity on cell line PSN1 (CellTiter-Glo, 72 hours); type: cell-based; conditions: for IC50: Homo sapiens, PSN1 cell proliferation; for Max Inhibition Percentage: PSN1 cells
Protocol: • a) Adherent cells need to be digested and centrifuged, while suspension cells can be directly centrifuged; • b) Resuspend with complete culture medium and count using an automatic cell counter; • c) Plate 6,000 cells per well for PSN1, and dilute the cell suspension to the required density; • d) Add 100 µL of cells per well, and culture overnight at 37°C in a 5% CO2 incubator to stabilize and balance the cells.
• a) Prepare the compound with DMSO as a solution of 200-fold final concentration; • b) Dilute the 200-fold compound to a 3-fold final concentration with complete culture medium; • c) Add 50 µL of the compound per well, use wells with the same volume of culture medium as controls, and continue culturing in a 37°C, 5% CO2 incubator for 72 hours.
• a) Equilibrate the cell plate and CTG reagent to room temperature; • b) Add 30 µL of CellTiter-Glo® reagent per well; • c) Incubate at room temperature for 15 minutes; • d) Detect with a microplate reader.
• 1) Calculate IC50 using GraphPad Prism 8; • 2) %Inh = (1-(Raw data - Meanmin) / (Meanmax - Meanmin))×100; • 3) Meanmax is the positive control well with only cells and the same volume of culture medium; • 4) Meanmin is the negative control well with only culture medium; • 5) Raw data refers to the signal values of wells with added compounds. For two replicate wells, they are denoted as Raw1 and Raw2.

[2] = Metabolic stability in liver microsomes (human); type: in vitro ADME; conditions: for Residual Amount (%) 15 min / Residual Amount (%) 30 min / Residual Amount (%) 45 min / Residual Amount (%) 60 min: Human, first line of pair; for half-life at 2 µM / microsomal CLint at 2 µM: pH 7.4
Protocol: (§1) For negative samples, add 80µL of PBS (100mM, pH = 7.4) solution. Vortex at 800 rpm for 10 seconds, then pre-incubate in a 37°C water bath for 10 minutes. • 4) After pre-incubation, add 2 µL of control drug or test compound to each well to initiate the reaction. The reaction is carried out in a 37°C water bath at 60 rpm. • 5) At 0.5, 15, 30, 45, and 60 minutes, take 50 µL of the reaction system from each well and add it to 200 µL of cold methanol solution containing the internal standard to terminate the reaction. • 6) Mix thoroughly and centrifuge at 4000 rpm at 4°C for 30 minutes. • 7) Take 100µL of supernatant and mix with 100µL ultrapure water for liquid-mass analysis. *Internal standards: 50nM alprazolam, 50nM labetalol and 100nM ketoprofen
(§2) The internal standard method is adopted, and the ratio of the sample peak area to the internal standard peak area is used to calculate the residual percentage (taking the ratio of the sample peak area to the internal standard peak area at 0.5 minutes as 100%).

[3] = Metabolic stability in liver microsomes (mouse); type: in vitro ADME; conditions: for Residual Amount (%) 15 min / Residual Amount (%) 30 min / Residual Amount (%) 45 min / Residual Amount (%) 60 min: Mouse, first line of pair
Protocol: as §1, §2

[4] = Permeability and transporter substrate test in Caco-2 cells (ABBA); type: in vitro ADME; conditions: human, pH 7.4; for Papp A→B at 2 h, 5 µM: Caco-2, A to B, read-out: Average Papp PappA-B; for Papp B→A at 2 h, 5 µM: Caco-2, B to A, read-out: Average Papp PappB-A; for efflux ratio at 2 h, 5 µM: Caco-2, Papp(B-A)/Papp(A-B), read-out: Efflux Rate (ERa)
Protocol: (§3) Apparent permeability coefficient (Papp, cm/s) and efflux ratio were calculated using Microsoft Excel.

[5] = system: Caco-2 cells; assay: as above; type: in vitro ADME; conditions: Caco-2
Protocol: as §3

[6] = Thermodynamic solubility test; type: physicochemical; conditions: phosphate buffer, aqueous buffer, thermodynamic from solid, pH 7.4, 25°C
Protocol: Weigh 7.098 g Na2HPO4 (Solution A) and dissolve in 500 mL ultrapure water via sonication; weigh 3.40 g KH2PO4 (Solution B) and dissolve in 250 mL ultrapure water via sonication. Slowly add Solution B dropwise to Solution A and adjust the pH to 7.40 ± 0.05.
Shake at 1100 rpm, 25°C for 5 minutes; • i) Add 10 µL of the 1 mg/mL DMSO sample and 10 µL of buffer to 980 µL of methanol, then dilute 10-fold with methanol:water (1:1) as the standard sample for LC-MS/MS analysis.
Solubility was calculated using Excel. Solubility(μM) = (Areafiltered × DFfiltered)/(Areastd × DFstd) × [std] × DFstd [formula]

[7] = system: HCT116 cells; type: in vivo; conditions: for TGI: test endpoint (PG-D22), TGITV
Protocol: • Balb/c nude mice: SPF grade, female, 6-8 weeks old, weighing 16-20 g, purchased from SPF (Beijing) Biotechnology Co., Ltd. • HCT116 cells: purchased from ATCC;
HCT116 cells were cultured in RPMI-1640 medium containing inactivated 10% fetal bovine serum, 100 U/mL penicillin, 100 µg/mL streptomycin and 2 mM glutamine in an incubator at 37°C with 5% CO2. Once the cells reached confluence, they were subcultured into new flasks. The tumor cells in the logarithmic growth phase were used for inoculation of tumors in vivo.
The tumor cells were washed twice with PBS, and the cell concentration was adjusted to 5×10^7/ml. The resuspended tumor cells were inoculated subcutaneously in the right flank of the experimental animals at 100 µL/mouse, i.e. 5×10^6/mouse. When the tumor grew to an average tumor volume of […], the animals were grouped for drug administration according to the tumor volume, with a total of 7 groups, 8 animals in each group. The first day of group drug administration was recorded as PG-D0. Table 25. Administration Schedule
During the administration, the health status of the animals is monitored.
From grouping until the end of the experiment, mouse body weight was measured every 3 days using an electronic balance.
From grouping until the end of the experiment, the long and short diameters of the mouse tumors were measured every 3 days using an electronic vernier caliper, and the volume was calculated using the formula: Volume (TV) = 0.5 × long diameter × (short diameter)^2.
RTV is the relative tumor volume, that is, the ratio of the tumor volume after administration to that before administration.
Graphpad prism 8 statistical software was used to perform statistical analysis of tumor volume and tumor weight among groups using the One-Way ANOVA test (homogeneity of variance), and p < 0.05 was considered statistically significant.

[8] = system: Pancreatic cancer cell line BxPC-3; assay: BxPC-3 subcutaneous tumor xenograft mouse model (pancreatic cancer); type: in vivo; conditions: for TGI: test endpoint, TGITV
[9] = in vivo; conditions: iv
Protocol: The objective of this study is to investigate the pharmacokinetic properties of the disclosed compounds after tail vein intravenous injection (IV) and oral administration (PO) in female CD1 mice. Plasma was sampleed at 0, 0.083, 0.25, 0.5, 1, 2, 4, 7 and 24 hours post-dosing, and the drug concentrations in plasma at different time points were detected by LC-MS/MS, and the relevant pharmacokinetic parameters were calculated using WinNonlin software.
Experimental female CD1 mice were purchased from SPF Laboratory Animal Technology Co., Ltd., aged 6-8 weeks with body weights of 20-30 g. The female CD1 mice were housed in a controlled environment (set temperature at 20-25°C and relative humidity at 40-70%). A 12-hour light/12-hour dark cycle was maintained unless interrupted by study-related events.
Compound solutions are prepared in an ultra-clean workbench and prepared immediately before use, and mixed thoroughly prior to use to ensure formulation homogeneity.
Vehicle composition: 10% DMSO+90% (20%SBE-β-CD) Table 4. Doses Used in IV Administration
Vehicle composition: 10% DMSO + 90% (20%SBE-β-CD) Table 5. Doses Used in PO Administration
Vehicle composition: 0.5% MC + 1% Tween-20 Table 6. Doses Used in PO Administration
Prior to the experiment, the animals were randomly grouped. The mice were fasted for 12 hours before drug administration, and free feeding was resumed 4 hours after administration.
All blood samples were transferred into plastic microcentrifuge tubes containing anticoagulant (EDTA-K2), and then centrifuged at 4000 g for 5 minutes at 4°C. The supernatant was transferred into a microcentrifuge tube without anticoagulant, and the plasma was stored in a -75±15°C refrigerator until detection.
The blood samples were purified by HPLC and analyzed by mass spectrometry to obtain the plasma concentration-time curve of the disclosed compound.
The pharmacokinetic parameters were estimated by non-compartmental model method (calculated by Phoenix WinNonlin software).

[10] = 30 mg/kg p.o. q.d. 10 consecutive days
[11] = 60 mg/kg p.o. q.d. 10 consecutive days
[12] = 90 mg/kg p.o. q.d. 10 consecutive days
[13] = male, CD-1, pH 7.4, Mouse liver microsomes
[14] = 60 mg/kg p.o. q.d., 8 mice per group
[15] = female, CD1, mouse, plasma, 2 mg/kg
[16] = female, CD1, mouse, plasma, 10 mg/kg

Structure (SMILES)	IC50 [1] [nM]	Max Inhibition Percentage ([1]; first column of this head)	Max Inhibition Percentage ([1]; second column of this head)	Residual Amount (%) 15 min [2] [%]	Residual Amount (%) 30 min [2] [%]	Residual Amount (%) 45 min [2] [%]	Residual Amount (%) 60 min [2] [%]	Residual Amount (%) 15 min [3] [%]	Residual Amount (%) 30 min [3] [%]	Residual Amount (%) 45 min [3] [%]	Residual Amount (%) 60 min [3] [%]	Papp A→B at 2 h, 5 µM [4] [×10⁻⁶ cm/s]	Papp B→A at 2 h, 5 µM [4] [×10⁻⁶ cm/s]	efflux ratio at 2 h, 5 µM [4]	Classification Efflux Transporter Substrate [5]	solubility at 24 h [6] [µg/mL]	TGI [7, 10] [%]	TGI [7, 11] [%]	half-life at 2 µM ([2]; Human liver microsomes) [h]	microsomal CLint at 2 µM ([2]; Human liver microsomes) [µL/min/mg]	also measured
[2H]C1([2H])CN(c2ccc(OC(F)(F)F)c(Nc3ncc4c(n3)-c3c(c(C(N)=O)nn3CCO)CC4)c2)C([2H])([2H])[C@H]2CCCN21 [CPD04]	105	87.6	1.3	52.72	28.62	21.10	13.41	61.30	39.18	34.10	26.56	4.2	25.1	5.98	Probable (ERa ≧ 2)	3 (≈ 5.33 µM)	7.6	30.5			half-life ([2]; Human liver microsomes): 0.349 h; microsomal CLint ([2]; Human liver microsomes): 66.2 µL/min/mg; half-life ([3]; Mouse liver microsomes): 0.532 h; microsomal CLint ([3]; Mouse liver microsomes): 43.4 µL/min/mg; Mouse Mortality Rate [8, 12]: 0%; TGI [8, 12]: 53%; AUC(0-t) ([9]; mouse, in vivo, 10 mg/kg): 3340 ng·h/mL; Vd ([9]; mouse, in vivo, 10 mg/kg): 2.31 L/kg; clearance ([9]; mouse, in vivo, 10 mg/kg): 50.1 mL/min/kg; half-life ([9]; mouse, in vivo, 10 mg/kg): 1.06 h
CN1CCN(c2ccc(OC(F)(F)F)c(Nc3ncc4c(n3)-c3c(c(C(N)=O)nn3CCO)CC4)c2)CC1 [NMS-P937, onvansertib, reference compound]	53.7	85.9	2.3	80.23	73.16	69.74	58.94	82.56	69.31	61.60	53.17	6.09	34.2	5.61	Probable (ERa ≧ 2)	24.8 (≈ 46.6 µM)	44.1	64.2	1.44	16.1	half-life at 2 µM [3, 13]: 1.11 h; microsomal CLint [3, 13]: 20.9 µL/min/mg; mice died [7, 14]: three; Mouse Mortality Rate [8, 11]: 25%; TGI [8, 11]: 61%; mice died [8, 14]: 2; AUC(0-t) [9, 15]: 353 ng·h/mL; Vd [9, 15]: 5.71 L/kg; clearance [9, 15]: 95.7 mL/min/kg; half-life [9, 15]: 1.52 h; AUC(0-t) [9, 16]: 4540 ng·h/mL; Vd [9, 16]: 3.22 L/kg; clearance [9, 16]: 36.9 mL/min/kg; half-life [9, 16]: 3.52 h
[2H]C1([2H])N(C)C([2H])([2H])C([2H])([2H])N(c2ccc(OC(F)(F)F)c(Nc3ncc4c(n3)-c3c(c(C(N)=O)nn3CCO)CC4)c2)C1([2H])[2H] [CPD06]	57	93.7	13.7	86.05	73.64	68.37	63.15	81.80	68.21	64.96	57.01	5.18	34.7	6.71	Probable (ERa ≧ 2)	22.6 (≈ 41.8 µM)	42.4	75.6	1.5	15.4	half-life at 2 µM [3, 13]: 1.27 h; microsomal CLint [3, 13]: 18.2 µL/min/mg; Mouse Mortality Rate [8, 10]: 0%; TGI [8, 10]: 33%; Mouse Mortality Rate [8, 11]: 0%; TGI [8, 11]: 71%; toxic symptoms during the treatment ([8]; BxPC-3 tumor-bearing mice): No obvious toxic symptoms were observed; AUC(0-t) [9, 16]: 3050 ng·h/mL; Vd [9, 16]: 3.02 L/kg; clearance [9, 16]: 55.1 mL/min/kg; half-life [9, 16]: 1.05 h
